What was measured:
human 5-HT2A receptor = human 5-HT2A receptor (Homo sapiens (Human), UniProt P28223); experiment: Radioligand binding assay on human 5-HT2A receptor ([3H]-ketanserin)
Protocol: i. Prepare the assay buffer following the table below;
ii. Preparation of 8 doses of reference and test compounds starting from 10 mM stock solution as requested by 5-fold serial dilutions with 100%;
iii. […] a. Add 50 μl/well of 0.5% (v/v) PEI to UniFilter-96 GF/B plates. Seal the plates and incubate at 4° C. for 3 hrs; b. After incubation, wash the plates 3 times with ice-cold wash buffer (50 mM Tris, pH7.4);
iv. Preparation of assay plates: a. Dilute cell membrane with assay buffer and add 330 μl/well to 96 round deep well plates to reach a concentration of 20 μg/well; b. […] Dilute [3H]-ketanserin with assay buffer to 5 nM (5× final concentration) and add 110 μl/well to 96 round deep well plates.
v. Centrifuge the plate at 1000 rpm for 30 secs and then agitate at 600 rpm, R.T. for 5 min.
vii. Stop the incubation by vacuum filtration onto GF/B filter plates followed by 4 times washing with ice-cold wash buffer (50 mM Tris, pH7.4).
ix. […]
For reference and exemplary test compounds of the application, the results are expressed as % Inhibition, using the normalization equation: N=100−100×(U−C2)/(C1−C2), where U is the unknown value, C1 is the average of high controls, and C2 is the average of low controls. The IC50 is determined by fitting percentage of inhibition as a function of compound concentrations with Hill equation using XLfit.

male C57 BL6 mice = experiment: Mouse head-twitch response (HTR); assay type: in vivo; settings: head twitches over a 1 h period, FIG. 1 and FIG. 2
Protocol: FIG. 1 is a graph showing the effect of various doses of exemplary compound of Formula I, I-28, on head-twitch response (HTR) in male C57 BL6 mice. The mice were treated with compound I-28 ([…]) by PO route (N=6 mice/dose), and the total number of head twitches were recorded over a 1 h period. Data is expressed as mean±SEM. The induction of head twitches elicited by 5-HT2A receptor agonists is believed to represent a behavioural proxy of their psychedelic effects.
The mice were treated with compound MSP-1007 (0.03-10 mg/kg) by SC route (N=6 mice/dose), and the total number of head twitches were recorded over a 1 h period. Data is expressed as mean±SEM. […]
The effect of different doses of exemplary compound I-28 of Formula I and its active metabolite were evaluated on head-twitch response (HTR) as a behavior-based model of psychedelic activity.
Male, C57 BL/6 J mice (body weight range 20-30 g) were dosed with the appropriate dose of test article, and following a 1-minute pre-treatment time, placed in individual observation chambers. Animals were visually assessed for the incidence head twitches continuously over a 1 hr period. […] Each head twitch was individually counted by a trained observer, and the data expressed as the mean±SEM of 6-10 mice per group. […]

[2H]C([2H])([2H])N(C([2H])([2H])[2H])C([2H])([2H])C([2H])([2H])c1c[nH]c2cccc(OC(=O)CCCCCCC/C=C\C/C=C\CCCCC)c12 [Compound I-28, 3-(2-(bis(methyl-d3)amino)ethyl-1,1,2,2-d4)-1H-indol-4-yl (9Z,12Z)-octadeca-9,12-dienoate]
IC50 (human 5-HT2A receptor): 516 nM

[2H]C([2H])([2H])N(C([2H])([2H])[2H])C([2H])([2H])C([2H])([2H])c1c[nH]c2cccc(O)c12 [Compound I-45, 3-(2-(bis(methyl-d3)amino)ethyl-1,1,2,2-d4)-1H-indol-4-ol]
efficacy to induce head twitch (in words) (male C57 BL6 mice): greater efficacy to induce head twitch than the exemplary prodrug I-28
